We go through three compounds from US20230295159A1, “ATX INHIBITOR, AND PREPARATION METHOD THEREFOR AND USE THEREOF” (SUZHOU ARK BIOPHARMACEUTICAL CO., LTD., priority 2020, published 2023).

Data set [1] has as its target ATX enzyme (Homo sapiens (Human), UniProt Q13822). The data set can be described thus: ATX enzyme activity inhibition assay. The class given is biochemical. Particulars: 16:0-LPC substrate, Amplex UltraRed fluorescence. The procedure:
The tested compounds were dissolved with dimethyl sulfoxide (DMSO) to prepare 20 mM of stock solutions, the stock solutions were subjected to 4-fold gradient dilutions with DMSO, with the initial concentration of 20 µM and a total of 8 concentration gradients. 20 nL of diluted compound was transferred to a 384-well plate using Echo 550 and 5 µL of ATX enzyme solution formulated with 4 × Tris-HCl reaction buffer to the well, then the 384-well plate was centrifuged at 1000 rpm for 1 min and […] pre-incubated at room temperature for 15 min. Subsequently, 5 µL of 16:0-LPC foumulated with the above 4 × reaction buffer and 10 µL of assay solution containng 2 × Amplex UltraRed reagent, choline oxidase and horseradish peroxidase (HRP) foumulated with the same reaction buffer were added to each well, then the 384-well plate was centrifugated at 1000 rpm for 1 min. The fluorescence signals were read at an excitation wavelength of 530 nm and an emission wavelength of 590 nm by Synergy 2 microplate reader. The inhibition rate of the compound against enzyme reaction was calculated according to the fluorescence intensity ratio, and IC50 of the compound was analysed and calculated by GraphPad Prism 5 software.

The target of data set [2] is 3A4 subtype of CYP450 enzyme (Homo sapiens (Human), UniProt P08684). The data set can be described thus: 3A4 subtype of CYP450 enzyme time-dependent inhibition assay (IC50 shift). Particulars: both IC50 values above top concentration; testosterone substrate; read-out: IC50 against 3A4 subtype (both groups, pre-incubated with and without NADPH). Type of data set: in vitro ADME. As for the experimental part: The probe substrate was testosterone at a concentration of 50 µM. The reaction was terminated after incubation for 10 min. The IC50 of the compound against enzyme was calculated by measuring the relative yield of metabolite, and the IC50 shift was calculated from the IC50 results of the groups pre-incubated with and without addition of NADPH.
Sequence of 3A4 subtype of CYP450 enzyme (P08684 whole entry): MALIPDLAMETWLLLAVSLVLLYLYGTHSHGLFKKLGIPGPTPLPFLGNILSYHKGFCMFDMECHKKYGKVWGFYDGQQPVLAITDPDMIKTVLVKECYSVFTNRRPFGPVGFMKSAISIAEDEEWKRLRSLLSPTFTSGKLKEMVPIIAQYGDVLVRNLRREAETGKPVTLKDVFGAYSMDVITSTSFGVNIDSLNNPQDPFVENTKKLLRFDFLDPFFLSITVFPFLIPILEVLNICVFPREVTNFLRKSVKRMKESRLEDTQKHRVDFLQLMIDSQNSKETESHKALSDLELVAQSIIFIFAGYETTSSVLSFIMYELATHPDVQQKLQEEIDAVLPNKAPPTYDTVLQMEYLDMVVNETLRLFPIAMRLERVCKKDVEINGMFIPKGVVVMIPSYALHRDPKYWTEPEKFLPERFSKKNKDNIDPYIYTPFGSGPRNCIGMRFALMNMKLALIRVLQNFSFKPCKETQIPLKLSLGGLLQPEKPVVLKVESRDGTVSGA

Data set [3] is described as follows: Rat pharmacokinetic study. The class given is in vivo, SD rat. Particulars: for F: PO 10 mg/kg vs IV 2 mg/kg; for AUC(0-inf) / AUC(0-t) / Cmax / half-life / Tmax: SD, plasma; for half-life: read-out: t½ (converted). The procedure:
SD rat pharmacokinetic study was performed on several compounds in Examples of the present disclosure through a single intravenous injection (IV, at a dose of 2 mg/kg) and a single oral administration (PO, at a dose of 10 mg/kg), and blood samples were taken before administration and 5 min, 15 min, 30 min, 1 h, 2 h, 4 h, 8 h, 12 h and 24 h after administration, respectively, to determine the plasma concentration of the compound for assay. The pharmacokinetic data of control compound and the compounds in Examples 17, 26, 28 and 29 of the present disclosure in rat plasma are shown in Tables 4-8.

Data set [4] has as its target hERG potassium channel (Homo sapiens (Human), UniProt Q12809). The data set can be described thus: hERG inhibition assay (manual whole-cell patch clamp). Type of data set: cell-based. Particulars: hERG tail current, stable transfected cell line. The procedure: Rapid activation of human delayed rectifier potassium current (IKr) is mainly mediated by hERG ion channel and participates in repolarization of human cardiomyocytes. Blocking this current with drugs will lead to QT interval prolongation syndrome in clinical practice, which will easily induce acute arrhythmia and even sudden death.
Experimental method: a whole-cell patch clamp technique was used to record hERG current. The cell suspension was added to a small petri dish and placed on an inverted microscope stage. After adherence, the cells were perfused with extracellular fluid at a recommended flow rate of 1-2 mL/min. The glass microelectrode was drawn by a microelectrode drawing instrument in two steps, and the resistance thereof after filling the electrode interior liquid was 2-5 MΩ. After the whole-cell recording mode was set up, the clamping potential was maintained at -80 mV. The depolarization voltage was applied to +60 mV for 850 ms, and then repolarized to -50 mV for 1275 ms to induce hERG tail current. Such a set of pulse programming was repeated every 15 seconds throughout the experiment. After the current was stable, the drug was administered by extracellular continuous perfusion from low concentration to high concentration. Starting from low concentration, perfusion continued until the drug effect was stable, then perfusion at the next concentration was performed. In this experiment, the blocking effect on hERG tail current was tested for the test objects at different concentrations and the positive control (N ≥ 2). Then, stimulus generation and signal acquisition were carried out by PatchMaster software; and a signal was amplified with a patch clamp amplifier. FitMaster, EXCEL, Graphpad Prism, SPSS 21.0, etc. were used for further data analysis and curve fitting. In data processing, when determining the blocking effect on hERG, the peak and baseline of tail current were calibrated. The inhibition rate (IR) of tail current was used to express the effect of the compounds at different concentrations.
IR = 100% × (peak of tail current before administration - peak of tail current after administration)/peak of tail current before administration.
IC50 was obtained by fitting the Hill equation (if applicable), if the maximum inhibition rate of the test object at all concentrations was less than 50%, then IC50 was not calculated. [00500]
In general terms: hERG is a cardiac potassium channel; its block is linked to QT prolongation.

Where two headings read alike, the source gives them in different places. Some results are limits rather than exact numbers.

Sequence of hERG potassium channel (Q12809 whole entry, the tested form may be a part): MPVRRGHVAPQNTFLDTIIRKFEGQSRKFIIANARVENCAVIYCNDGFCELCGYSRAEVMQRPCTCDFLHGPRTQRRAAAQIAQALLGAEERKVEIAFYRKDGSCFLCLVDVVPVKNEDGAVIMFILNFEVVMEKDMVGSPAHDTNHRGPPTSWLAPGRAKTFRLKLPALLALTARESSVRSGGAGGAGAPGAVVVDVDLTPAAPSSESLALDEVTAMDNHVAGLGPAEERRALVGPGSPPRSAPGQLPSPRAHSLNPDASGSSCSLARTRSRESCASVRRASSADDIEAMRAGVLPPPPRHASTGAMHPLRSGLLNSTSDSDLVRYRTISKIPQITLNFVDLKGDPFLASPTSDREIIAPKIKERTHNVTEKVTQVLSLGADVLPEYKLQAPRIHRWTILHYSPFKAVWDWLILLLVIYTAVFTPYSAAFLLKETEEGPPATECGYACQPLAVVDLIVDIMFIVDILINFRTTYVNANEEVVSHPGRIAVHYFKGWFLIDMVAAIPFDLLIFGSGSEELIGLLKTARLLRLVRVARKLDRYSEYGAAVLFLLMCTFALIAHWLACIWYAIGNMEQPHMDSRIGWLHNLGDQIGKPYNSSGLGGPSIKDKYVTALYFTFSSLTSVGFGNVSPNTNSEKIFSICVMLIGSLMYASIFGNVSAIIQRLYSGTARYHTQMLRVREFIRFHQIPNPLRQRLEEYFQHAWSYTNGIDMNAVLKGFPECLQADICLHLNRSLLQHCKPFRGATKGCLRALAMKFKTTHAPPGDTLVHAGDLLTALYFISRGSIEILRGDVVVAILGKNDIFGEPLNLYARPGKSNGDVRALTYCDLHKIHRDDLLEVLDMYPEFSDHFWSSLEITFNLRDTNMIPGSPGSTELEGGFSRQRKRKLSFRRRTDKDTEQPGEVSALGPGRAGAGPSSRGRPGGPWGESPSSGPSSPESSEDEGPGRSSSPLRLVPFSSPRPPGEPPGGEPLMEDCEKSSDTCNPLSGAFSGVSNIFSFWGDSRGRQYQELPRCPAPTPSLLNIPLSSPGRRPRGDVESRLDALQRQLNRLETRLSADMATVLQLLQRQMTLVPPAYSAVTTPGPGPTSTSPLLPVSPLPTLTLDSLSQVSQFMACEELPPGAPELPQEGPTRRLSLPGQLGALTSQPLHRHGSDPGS

As to `CCN(c1nc(-c2ccc(F)cc2)c(C#N)s1)c1c2nc(-c3cnc(N4CC(O)C4)nc3)ccc2nn1CC` [Example 23, 2-(ethyl(2-ethyl-5-(2-(3-hydroxyazetidin-1-yl)pyrimidin-5-yl)-2H-pyrazolo[4,3-b]pyridin-3-yl)amino)-4-(4-fluorophenyl)thiazole-5-carbonitrile], the IC50 – broadly, the point on the concentration scale where inhibition reaches its midpoint – was 11 nM in data set [1] and over 100000 nM in data set [2].
As to `CCN(c1nc(-c2ccc(F)cc2)c(C#N)s1)c1c2nc(-c3cnc(N4CCOCC4)nc3)ccc2nn1CC` [Example 29, 2-(ethyl(2-ethyl-5-(2-morpholinopyrimidin-5-yl)-2H-pyrazolo[4,3-b]pyridin-3-yl)amino)-4-(4-fluorophenyl)thiazole-5-carbonitrile], in data set [3] (IV 2 mg/kg), the Cl_F_pred is 4.83 mL/min/kg; the AUC(0-inf) (usually total exposure, with the tail of the curve extrapolated) came out at 7220 ng·h/mL; the AUC(0-t) (in general, exposure summed from dosing to a finite time, without extrapolation to infinity) was found to be 6840 ng·h/mL; the highest concentration (Cmax) (commonly the maximum level reached in the sampled fluid or tissue) amounted to 3480 ng/mL. For the same compound, in data set [3] (IV 2 mg/kg), the half-life was 8.2 h. In data set [3] (PO 10 mg/kg), this compound gave a Cl_F_pred of 18.3 mL/min/kg, an AUC(0-inf) of 9150 ng·h/mL, an area under the curve AUC(0-t) of 7780 ng·h/mL and a Cmax of 847 ng/mL. For the same compound, in data set [3] (PO 10 mg/kg), the Tmax (usually the time at which the peak concentration occurs) amounted to 3.3 h and the half-life is 9.2 h. The compound further returned a F in data set [3] of 11.2%. Further, in data set [1], the IC50 was 23 nM. Moreover, in data set [4], the IC50 was over 30000 nM. Also, the IC50 in data set [2] is over 100000 nM.
In data set [3] (IV 2 mg/kg), `CCN(c1nc(-c2ccc(F)cc2)c(C#N)s1)c1c2nc(-c3cnc(N4CCCS4(=O)=O)nc3)ccc2nn1CC` [Example 17, 2-((5-(2-(1,1-dioxidoisothiazolidin-2-yl)pyrimidin-5-yl)-2-ethyl-2H-pyrazolo[4,3-b]pyridin-3-yl)(ethyl)amino)-4-(4-fluorophenyl)thiazole-5-carbonitrile] gave a Cl_F_pred of 7.17 mL/min/kg, an AUC(0-inf) of 4720 ng·h/mL, an AUC(0-t) of 4680 ng·h/mL and a peak concentration (Cmax) of 2540 ng/mL. Besides, the half-life in data set [3] (IV 2 mg/kg) is 4 h. In data set [3] (PO 10 mg/kg), this compound showed a Cl_F_pred of 18.2 mL/min/kg, an AUC(0-inf) of 9180 ng·h/mL, an AUC(0-t) of 9030 ng·h/mL and a Cmax of 1030 ng/mL. Also, in data set [3] (PO 10 mg/kg), the Tmax was found to be 4 h and the half-life was 3.7 h. Besides, the F in data set [3] stood at 38.5%. The IC50 in data set [1] turned out to be 7.4 nM. The compound also had an IC50 in data set [4] of over 30000 nM. In addition, in data set [2], the IC50 is over 100000 nM.
